The term Ki denotes a dissociation constant, usually derived from enzyme kinetics or from competition with a known ligand. The low end stands for a stronger hold on the target, the high end for a looser hold on the target. As a reminder, the IC50 is the midpoint of a concentration-inhibition curve. What is called EC50 is the concentration giving half of the maximal effect.

The record followed here is ChEMBL document CHEMBL1140580, “Synthesis and characterization of trans-4-(4-chlorophenyl)pyrrolidine-3-carboxamides of piperazinecyclohexanes as ligands for the melanocortin-4 receptor” (Bioorg Med Chem Lett, 2007).

The target of assay [1] is T1, Melanocortin receptor 4 (Homo sapiens, UniProt P32245). The assay can be described thus: Displacement of […]NDPMSH from human MC4R expressed in HEK293 cells. The class given is cell-based.
Assay [2] deals with T1, Melanocortin receptor 4. The assay can be described thus: Agonist activity at MC4R assessed as stimulation of cAMP release relative to alphaMSH. The class given is functional.
The target in assay [3] is T1, Melanocortin receptor 4. The assay can be described thus: Antagonist activity at MC4R assessed as inhibition of alpha-MSH-stimulated cAMP release. The class given is functional.
For assay [4], the target named is Melanocyte-stimulating hormone receptor (Homo sapiens, UniProt Q01726). The assay can be described thus: Binding affinity to MC1R.
A further assay concerns the target Melanocortin receptor 3 (Homo sapiens, UniProt P41968). The assay can be described thus: Binding affinity to MC3R.
For the next assay, the target named is Melanocortin receptor 5 (Homo sapiens, UniProt P33032). The assay can be described thus: Binding affinity to MC5R.
Assay [5] addresses Melanocortin receptor 4 (Mus musculus, UniProt P56450). The assay can be described thus: Binding affinity to mouse MC4R.
In assay [6] the target is T1, Melanocortin receptor 4. The assay can be described thus: Agonist activity at MC4R assessed as stimulation of cAMP release. The class given is functional.

T1 sequence (P32245 whole entry): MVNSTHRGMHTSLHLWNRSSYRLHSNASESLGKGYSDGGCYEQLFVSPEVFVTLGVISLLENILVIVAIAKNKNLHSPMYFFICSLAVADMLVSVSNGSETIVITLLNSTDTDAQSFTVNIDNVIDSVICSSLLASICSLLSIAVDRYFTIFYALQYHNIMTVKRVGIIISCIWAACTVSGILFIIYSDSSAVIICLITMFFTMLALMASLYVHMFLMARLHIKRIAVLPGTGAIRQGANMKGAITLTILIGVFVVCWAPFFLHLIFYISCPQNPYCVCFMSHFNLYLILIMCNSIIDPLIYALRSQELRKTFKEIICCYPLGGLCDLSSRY
Melanocortin receptor 4 (Mus musculus, UniProt P56450), sequence (P56450 whole entry): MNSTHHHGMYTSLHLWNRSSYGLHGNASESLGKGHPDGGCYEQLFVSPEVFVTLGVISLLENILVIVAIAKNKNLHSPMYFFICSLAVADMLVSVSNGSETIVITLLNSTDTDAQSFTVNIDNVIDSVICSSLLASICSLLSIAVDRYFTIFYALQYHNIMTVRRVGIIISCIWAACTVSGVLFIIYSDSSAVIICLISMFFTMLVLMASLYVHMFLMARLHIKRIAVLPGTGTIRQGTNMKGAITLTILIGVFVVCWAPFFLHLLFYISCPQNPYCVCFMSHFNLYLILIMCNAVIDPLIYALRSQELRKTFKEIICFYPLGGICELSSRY
Melanocortin receptor 3, sequence (P41968 whole entry): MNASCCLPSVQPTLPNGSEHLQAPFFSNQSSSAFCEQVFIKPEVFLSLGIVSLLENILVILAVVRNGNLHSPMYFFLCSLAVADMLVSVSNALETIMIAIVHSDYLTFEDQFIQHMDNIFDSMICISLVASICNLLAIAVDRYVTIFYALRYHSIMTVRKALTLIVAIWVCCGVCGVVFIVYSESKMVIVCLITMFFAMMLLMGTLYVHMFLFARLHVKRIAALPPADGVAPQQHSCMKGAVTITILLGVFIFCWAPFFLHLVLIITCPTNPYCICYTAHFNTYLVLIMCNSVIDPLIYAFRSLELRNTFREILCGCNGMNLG
Melanocyte-stimulating hormone receptor, sequence (Q01726 whole entry): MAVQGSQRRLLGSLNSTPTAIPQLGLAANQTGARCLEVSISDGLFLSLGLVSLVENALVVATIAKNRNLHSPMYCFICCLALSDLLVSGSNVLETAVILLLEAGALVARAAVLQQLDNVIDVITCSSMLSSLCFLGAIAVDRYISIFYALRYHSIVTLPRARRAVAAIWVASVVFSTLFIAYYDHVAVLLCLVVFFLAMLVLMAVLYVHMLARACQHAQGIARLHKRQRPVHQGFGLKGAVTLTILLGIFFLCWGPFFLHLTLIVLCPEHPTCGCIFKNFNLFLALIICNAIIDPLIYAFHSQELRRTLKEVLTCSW
Melanocortin receptor 5, sequence (P33032 whole entry, looked up): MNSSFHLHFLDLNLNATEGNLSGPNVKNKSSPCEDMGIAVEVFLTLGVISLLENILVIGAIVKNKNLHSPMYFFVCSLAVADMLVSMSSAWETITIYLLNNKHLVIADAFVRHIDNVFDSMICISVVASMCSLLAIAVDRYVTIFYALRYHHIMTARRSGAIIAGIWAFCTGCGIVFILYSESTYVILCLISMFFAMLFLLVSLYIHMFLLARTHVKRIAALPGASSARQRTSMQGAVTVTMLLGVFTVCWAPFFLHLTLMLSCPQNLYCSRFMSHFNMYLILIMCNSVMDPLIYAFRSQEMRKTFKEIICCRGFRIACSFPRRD

Turning to `COc1ccc(CNCC2(N3CCN(C(=O)[C@H]4CN(C(C)C)C[C@@H]4c4ccc(Cl)cc4)CC3)CCCCC2)cc1F`, the Ki on Melanocortin receptor 4 [1] came to 0.5 nM; in assay [4] it was 3900 nM; on Melanocortin receptor 3 it was 760 nM; at Melanocortin receptor 5, 540 nM; at Melanocortin receptor 4 [5] it was 0.6 nM. Further, the Intrinsic activity on Melanocortin receptor 4 [2] stood at 10%. Moreover, the half-inhibitory concentration (IC50) on Melanocortin receptor 4 [3] turned out to be 48 nM. Besides, the EC50 at Melanocortin receptor 4 [6] is 170 nM.

As to `CC(C)N1C[C@H](C(=O)N2CCN(C3(CNCc4ccncc4)CCCCC3)CC2)[C@@H](c2ccc(Cl)cc2)C1`, at Melanocortin receptor 4 [1], affinity was put at a Ki of 27 nM. Further, at Melanocortin receptor 4 [2], the Intrinsic activity amounted to 27%. On Melanocortin receptor 4 [3], the IC50 is 410 nM. Moreover, the EC50 at Melanocortin receptor 4 [6] stood at 780 nM.

At Melanocortin receptor 4 [1], `O=C([C@H]1CN(C2CCOCC2)C[C@@H]1c1ccc(Cl)cc1)N1CCN(C2(CNCc3ccccc3)CCCCC2)CC1` returned a Ki of 29 nM. The Intrinsic activity on Melanocortin receptor 4 [2] is 70%. Moreover, the EC50 on Melanocortin receptor 4 [6] was found to be 1000 nM.

Regarding `Cc1c(CNCC2(N3CCN(C(=O)[C@H]4CN(C(C)C)C[C@@H]4c4ccc(Cl)cc4)CC3)CCCCC2)cnn1C`, affinity at Melanocortin receptor 4 [1] was put at a Ki of 11 nM. Besides, the Intrinsic activity at Melanocortin receptor 4 [2] turned out to be 43%. Moreover, on Melanocortin receptor 4 [6], the EC50 amounted to 50 nM.

In turn, `O=C([C@H]1CN(C2CCCCC2)C[C@@H]1c1ccc(Cl)cc1)N1CCN(C2(CNCc3ccccc3)CCCCC2)CC1` yielded a Ki on Melanocortin receptor 4 [1] of 5.5 nM. The Intrinsic activity on Melanocortin receptor 4 [2] amounted to 16%. Further, the IC50 at Melanocortin receptor 4 [3] is 130 nM. Further, the EC50 on Melanocortin receptor 4 [6] worked out at 1500 nM.

Take `CC(C)N1C[C@H](C(=O)N2CCN(C3(CNCc4cncnc4)CCCCC3)CC2)[C@@H](c2ccc(Cl)cc2)C1`: on Melanocortin receptor 4 [1], the affinity corresponds to a Ki of 220 nM. Besides, the Intrinsic activity at Melanocortin receptor 4 [2] came out at 66%. The EC50 on Melanocortin receptor 4 [6] amounted to 220 nM.

On Melanocortin receptor 4 [1], `CC(C)N1C[C@H](C(=O)N2CCN(C3(CNCc4ccco4)CCCCC3)CC2)[C@@H](c2ccc(Cl)cc2)C1` registered a Ki of 38 nM. Moreover, the Intrinsic activity at Melanocortin receptor 4 [2] was 32%. For the same compound, at Melanocortin receptor 4 [6], the EC50 amounted to 570 nM.

Turning to `CC(C)N1C[C@H](C(=O)N2CCN(C3(CNCc4ccc(F)cc4F)CCCCC3)CC2)[C@@H](c2ccc(Cl)cc2)C1`, on Melanocortin receptor 4 [1], the Ki was 11 nM. Besides, the Intrinsic activity at Melanocortin receptor 4 [2] was determined as 27%. Moreover, the EC50 at Melanocortin receptor 4 [6] amounted to 1300 nM.

Turning to `CC(C)N1C[C@H](C(=O)N2CCN(C3(CNCc4ccccc4Cl)CCCCC3)CC2)[C@@H](c2ccc(Cl)cc2)C1`, on Melanocortin receptor 4 [1], the Ki is 25 nM. Also, the Intrinsic activity at Melanocortin receptor 4 [2] was determined as 75%. For the same compound, on Melanocortin receptor 4 [6], the EC50 was 1300 nM.

Regarding `CC(C)N1C[C@H](C(=O)N2CCN(C3(CNCc4ccoc4)CCCCC3)CC2)[C@@H](c2ccc(Cl)cc2)C1`, the Ki at Melanocortin receptor 4 [1] is 75 nM. Further, the Intrinsic activity at Melanocortin receptor 4 [2] is 53%. Also, the EC50 on Melanocortin receptor 4 [6] was 480 nM.

With `CC(C)N1C[C@H](C(=O)N2CCN(C3(CNCc4c[nH]cn4)CCCCC3)CC2)[C@@H](c2ccc(Cl)cc2)C1`, at Melanocortin receptor 4 [1], the affinity, expressed as Ki, was 220 nM. In addition, the Intrinsic activity on Melanocortin receptor 4 [2] was 49%. The EC50 at Melanocortin receptor 4 [6] came out at 110 nM.

On Melanocortin receptor 4 [1], `CC(=O)Nc1ccc(CNCC2(N3CCN(C(=O)[C@H]4CN(C(C)C)C[C@@H]4c4ccc(Cl)cc4)CC3)CCCCC2)cc1` displayed a Ki of 29 nM. Further, the Intrinsic activity at Melanocortin receptor 4 [2] is 27%. Also, the EC50 at Melanocortin receptor 4 [6] is 190 nM.

As to `CC(C)N1C[C@H](C(=O)N2CCN(C3(CNCc4nccs4)CCCCC3)CC2)[C@@H](c2ccc(Cl)cc2)C1`, the affinity on Melanocortin receptor 4 [1] corresponds to a Ki of 130 nM. Also, the Intrinsic activity on Melanocortin receptor 4 [2] was 72%. In addition, at Melanocortin receptor 4 [6], the concentration for a half-maximal effect (EC50) worked out at 740 nM.

On to `COc1cccc(CNCC2(N3CCN(C(=O)[C@H]4CN(C(C)C)C[C@@H]4c4ccc(Cl)cc4)CC3)CCCCC2)c1`, for which affinity at Melanocortin receptor 4 [1] was put at a Ki of 30 nM. The Intrinsic activity at Melanocortin receptor 4 [2] turned out to be 39%. In addition, at Melanocortin receptor 4 [6], the EC50 worked out at 1200 nM.

`COc1ccccc1CNCC1(N2CCN(C(=O)[C@H]3CN(C(C)C)C[C@@H]3c3ccc(Cl)cc3)CC2)CCCCC1` gave a Ki at Melanocortin receptor 4 [1] of 62 nM. Besides, the Intrinsic activity on Melanocortin receptor 4 [2] stood at 48%. Moreover, the EC50 on Melanocortin receptor 4 [6] was 1000 nM.

Regarding `CC(C)N1C[C@H](C(=O)N2CCN(C3(CNCc4ncc[nH]4)CCCCC3)CC2)[C@@H](c2ccc(Cl)cc2)C1`, the Ki at Melanocortin receptor 4 [1] is 560 nM. Besides, the Intrinsic activity at Melanocortin receptor 4 [2] was determined as 69%. Moreover, the EC50 on Melanocortin receptor 4 [6] is 230 nM.

In the case of `CC(C)N1C[C@H](C(=O)N2CCN(C3(CNCc4ccccc4)CCCCC3)CC2)[C@@H](c2ccc(Cl)cc2)C1`, the Ki at Melanocortin receptor 4 [1] came out at 26 nM. Also, at Melanocortin receptor 4 [2], the Intrinsic activity stood at 31%. The EC50 at Melanocortin receptor 4 [6] stood at 1100 nM.

In turn, `CC(C)N1C[C@H](C(=O)N2CCN(C3(CNCc4ccccc4F)CCCCC3)CC2)[C@@H](c2ccc(Cl)cc2)C1` gave a Ki on Melanocortin receptor 4 [1] of 12 nM. Further, the Intrinsic activity at Melanocortin receptor 4 [2] turned out to be 48%. The EC50 on Melanocortin receptor 4 [6] was 580 nM.
